Experimental data taken from PubChem BioAssay AID180 (DTP/NCI, 2004).
Where “and” joins values, the source holds several entries; their conditions need not be identical. Identical values can stand only once.

Tested on: BDF1 mice, Adenocarcinoma 755 s.c., tumor weight T/C
Test: NCI In Vivo Anticancer Drug Screen. Data for tumor model Adenocarcinoma 755 (subcutaneous) in B6D2F1 (BDF1) mice
Details: endpoint: mean tumor weight, higher = larger tumour
Procedure: The antitumor activity of compounds was measured in mice bearing transplantable tumors. Survival or tumor size were measured and the results are expressed as the measurement made in the treated group (T) divided by the measurement made in the vehicle treated control group (C). The tumor model used in this assay is Adenocarcinoma 755 (subcutaneous) in B6D2F1 (BDF1) mice

[1] = dose: 15.0 mg/kg/injection, schedule: Q01DX011 (ip), vehicle: methylcellulose (MC)
[2] = dose: 31.0 mg/kg/injection, schedule: Q01DX011 (ip), vehicle: methylcellulose (MC)

Structure (SMILES): O=C(O)/C=C\C(=O)Nc1nccs1
- T/C (dose: 25.0 mg/kg/injection, schedule: Q01DX011 (ip), vehicle: carboxymethylcellulose (CMC)): 80 % of control

Structure (SMILES): Nc1ncnc2nc(/N=N/SCCC(=O)O)[nH]c12
- T/C (dose: 37.5 mg/kg/injection, schedule: Q01DX011 (ip), vehicle: saline): 205 % of control
- T/C (dose: 75.0 mg/kg/injection, schedule: Q01DX011 (ip), vehicle: saline): 123 % of control
- T/C (dose: 150.0 mg/kg/injection, schedule: Q01DX011 (ip), vehicle: saline): 56 % of control

Structure (SMILES): CC[N+]([O-])(CC)c1n(C)c2c(=O)n(C)c(=O)n(C)c2[n+]1[O-]
- T/C (dose: 30.0 mg/kg/injection, schedule: Q01DX011 (ip), vehicle: methylcellulose (MC)): 93 % of control
- T/C (dose: 60.0 mg/kg/injection, schedule: Q01DX011 (ip), vehicle: methylcellulose (MC)): 96 % of control
- T/C (dose: 120.0 mg/kg/injection, schedule: Q01DX011 (ip), vehicle: methylcellulose (MC)): 110 % of control
- T/C (dose: 240.0 mg/kg/injection, schedule: Q01DX011 (ip), vehicle: methylcellulose (MC)): 70 % of control

Structure (SMILES): N#CCSc1ncnc2nc[nH]c12
- T/C (dose: 1.0 mg/kg/injection, schedule: Q01DX011 (im), vehicle: carboxymethylcellulose (CMC)): 63 % of control
- T/C (dose: 1.0 mg/kg/injection, schedule: Q01DX011 (ip), vehicle: carboxymethylcellulose (CMC)): 54 % of control
- T/C (dose: 1.0 mg/kg/injection, schedule: Q01DX011 (iv), vehicle: carboxymethylcellulose (CMC)): 79 % of control
- T/C (dose: 1.0 mg/kg/injection, schedule: Q01DX011 (sc), vehicle: carboxymethylcellulose (CMC)): 53 % of control
- T/C (dose: 2.0 mg/kg/injection, schedule: Q01DX011 (im), vehicle: carboxymethylcellulose (CMC)): 9 % of control
- T/C (dose: 2.0 mg/kg/injection, schedule: Q01DX011 (ip), vehicle: carboxymethylcellulose (CMC)): 14 % of control
- T/C (dose: 2.0 mg/kg/injection, schedule: Q01DX011 (iv), vehicle: carboxymethylcellulose (CMC)): 28 % of control
- T/C (dose: 2.0 mg/kg/injection, schedule: Q01DX011 (sc), vehicle: carboxymethylcellulose (CMC)): 10 % of control
- T/C (dose: 4.0 mg/kg/injection, schedule: Q01DX011 (im), vehicle: carboxymethylcellulose (CMC)): 1 % of control
- T/C (dose: 4.0 mg/kg/injection, schedule: Q01DX011 (ip), vehicle: carboxymethylcellulose (CMC)): 6 % of control
- T/C (dose: 8.0 mg/kg/injection, schedule: Q01DX011 (ip), vehicle: carboxymethylcellulose (CMC)): 7 % of control
- T/C (dose: 8.0 mg/kg/injection, schedule: Q01DX011 (iv), vehicle: carboxymethylcellulose (CMC)): 1 % of control
- T/C (dose: 16.0 mg/kg/injection, schedule: Q01DX011 (ip), vehicle: carboxymethylcellulose (CMC)): 3 % of control
- T/C (dose: 50.0 mg/kg/injection, schedule: Q03DX004 (ip), vehicle: carboxymethylcellulose (CMC)): 2 % of control
- T/C (dose: 64.0 mg/kg/injection, schedule: Q01DX011 (ip), vehicle: carboxymethylcellulose (CMC)): 2 % of control
- T/C (dose: 100.0 mg/kg/injection, schedule: Q01DX001 (ip), vehicle: carboxymethylcellulose (CMC)): 20 % of control
- T/C (dose: 100.0 mg/kg/injection, schedule: Q03DX004 (ip), vehicle: carboxymethylcellulose (CMC)): 1 % of control
- T/C (dose: 100.0 mg/kg/injection, schedule: Q07DX002 (ip), vehicle: carboxymethylcellulose (CMC)): 5 % of control
- T/C (dose: 200.0 mg/kg/injection, schedule: Q01DX001 (ip), vehicle: carboxymethylcellulose (CMC)): 20 % of control
- T/C (dose: 200.0 mg/kg/injection, schedule: Q07DX002 (ip), vehicle: carboxymethylcellulose (CMC)): 3 % of control

Structure (SMILES): CC(=O)Nc1nc(Cl)c2ncn(C3CCCO3)c2n1 (stereo unspecified)
- T/C (dose: 30.0 mg/kg/injection, schedule: Q01DX011 (ip), vehicle: carboxymethylcellulose (CMC)): 106 % of control
- T/C (dose: 60.0 mg/kg/injection, schedule: Q01DX011 (ip), vehicle: carboxymethylcellulose (CMC)): 38 % of control
- T/C (dose: 240.0 mg/kg/injection, schedule: Q01DX011 (ip), vehicle: carboxymethylcellulose (CMC)): 19 % of control and 42 % of control

Structure (SMILES): Cc1cccc(CSc2nc(N)nc3nc[nH]c23)n1
- T/C (dose: 3.9 mg/kg/injection, schedule: Q01DX011 (ip), vehicle: methylcellulose (MC)): 17 % of control
- T/C (dose: 7.8 mg/kg/injection, schedule: Q01DX011 (ip), vehicle: methylcellulose (MC)): 20 % of control
- T/C (dose: 15.6 mg/kg/injection, schedule: Q01DX011 (ip), vehicle: methylcellulose (MC)): 5 % of control
- T/C (dose: 31.25 mg/kg/injection, schedule: Q01DX011 (ip), vehicle: methylcellulose (MC)): 1 % of control

Structure (SMILES): Cn1ccc(N)nc1=O
- T/C [1]: 88 % of control
- T/C [2]: 108 % of control
- T/C (dose: 62.0 mg/kg/injection, schedule: Q01DX011 (ip), vehicle: methylcellulose (MC)): 98 % of control
- T/C (dose: 125.0 mg/kg/injection, schedule: Q01DX011 (ip), vehicle: methylcellulose (MC)): 84 % of control

Structure (SMILES): Nc1nc(=S)cc(Nc2ccc(Cl)c(Cl)c2)[nH]1
- T/C [1]: 114 % of control
- T/C [2]: 92 % of control

Structure (SMILES): Oc1ccc2ccccc2c1-c1c(O)ccc2ccccc12
- T/C (dose: 12.6 mg/kg/injection, schedule: Q01DX011 (ip), vehicle: other): 79 % of control
- T/C (dose: 25.0 mg/kg/injection, schedule: Q01DX011 (ip), vehicle: other): 71 % of control
- T/C (dose: 50.0 mg/kg/injection, schedule: Q01DX011 (ip), vehicle: other): 41 % of control

Structure (SMILES): O=[N+]([O-])c1ccc2ncccc2c1
- T/C (dose: 31.2 mg/kg/injection, schedule: Q01DX011 (ip), vehicle: other): 83 % of control
- T/C (dose: 62.5 mg/kg/injection, schedule: Q01DX011 (ip), vehicle: other): 52 % of control

Structure (SMILES): c1ccn(-c2nc(-n3cccc3)nc(-n3cccc3)n2)c1
- T/C (dose: 31.25 mg/kg/injection, schedule: Q01DX011 (ip), vehicle: carboxymethylcellulose (CMC)): 72 % of control
- T/C (dose: 62.5 mg/kg/injection, schedule: Q01DX011 (ip), vehicle: carboxymethylcellulose (CMC)): 86 % of control
- T/C (dose: 125.0 mg/kg/injection, schedule: Q01DX011 (ip), vehicle: carboxymethylcellulose (CMC)): 73 % of control
- T/C (dose: 250.0 mg/kg/injection, schedule: Q01DX011 (ip), vehicle: carboxymethylcellulose (CMC)): 17 % of control and 38 % of control

Structure (SMILES): CSc1nc(N)nc2c1ncn2CCCl
- T/C (dose: 10.0 mg/kg/injection, schedule: Q01DX011 (ip), vehicle: saline): 65 % of control
- T/C (dose: 20.0 mg/kg/injection, schedule: Q01DX011 (ip), vehicle: saline): 70 % of control
- T/C (dose: 40.0 mg/kg/injection, schedule: Q01DX011 (ip), vehicle: saline): 73 % of control
- T/C (dose: 80.0 mg/kg/injection, schedule: Q01DX011 (ip), vehicle: saline): 74 % of control

Structure (SMILES): Nc1nc(N)c2[nH]cnc2n1
- T/C (dose: 17.49 mg/kg/injection, schedule: Q01DX011 (ip), vehicle: carboxymethylcellulose (CMC)): 94 % of control
- T/C (dose: 17.62 mg/kg/injection, schedule: Q01DX011 (ip), vehicle: carboxymethylcellulose (CMC)): 114 % of control
- T/C (dose: 34.98 mg/kg/injection, schedule: Q01DX011 (ip), vehicle: carboxymethylcellulose (CMC)): 93 % of control
- T/C (dose: 35.25 mg/kg/injection, schedule: Q01DX011 (ip), vehicle: carboxymethylcellulose (CMC)): 91 % of control
- T/C (dose: 69.95 mg/kg/injection, schedule: Q01DX011 (ip), vehicle: carboxymethylcellulose (CMC)): 103 % of control
- T/C (dose: 70.5 mg/kg/injection, schedule: Q01DX011 (ip), vehicle: carboxymethylcellulose (CMC)): 108 % of control
- T/C (dose: 141.0 mg/kg/injection, schedule: Q01DX011 (ip), vehicle: carboxymethylcellulose (CMC)): 47 % of control

Structure (SMILES): S=P(Oc1ccccc1)(N1CC1)N1CC1
- T/C (dose: 55.0 mg/kg/injection, schedule: Q01DX011 (ip), vehicle: methylcellulose (MC)): 22 % of control and 42 % of control and 44 % of control
- T/C (dose: 220.0 mg/kg/injection, schedule: Q01DX011 (ip), vehicle: methylcellulose (MC)): 20 % of control

Structure (SMILES): OCCNc1ncnc2c1ncn2C1CCCO1 (stereo unspecified)
- T/C (dose: 50.0 mg/kg/injection, schedule: Q01DX011 (ip), vehicle: saline): 174 % of control
- T/C (dose: 100.0 mg/kg/injection, schedule: Q01DX011 (ip), vehicle: saline): 96 % of control
- T/C (dose: 200.0 mg/kg/injection, schedule: Q01DX011 (ip), vehicle: saline): 48 % of control
